Test results from PMC6218659, “Structures of DPAGT1 Explain Glycosylation Disease Mechanisms and Advance TB Antibiotic Design” (Cell, 2018).
Changes are numbered by the printed parent chain. Structures can show the parent of a compound that is named as a salt.

Key:
[1] = target: T1, DPAGT1 WT (Homo sapiens, UniProt Q9H3H5); experiment: Thermostability assay (label free differential scanning fluorimetry); assay type: binding, H. sapiens; conditions: 50 μM compound
T1 construct: H. sapiens DPAGT1 (1-408, N-terminal 6 x HIS tag, TEV cleavage site); 6xHis purification tag with TEV site (N, cleaved yes); made in house; host or cells: Spodoptera frugiperda Sf9 insect cells (baculovirus)
T1 sequence (Q9H3H5 1-408): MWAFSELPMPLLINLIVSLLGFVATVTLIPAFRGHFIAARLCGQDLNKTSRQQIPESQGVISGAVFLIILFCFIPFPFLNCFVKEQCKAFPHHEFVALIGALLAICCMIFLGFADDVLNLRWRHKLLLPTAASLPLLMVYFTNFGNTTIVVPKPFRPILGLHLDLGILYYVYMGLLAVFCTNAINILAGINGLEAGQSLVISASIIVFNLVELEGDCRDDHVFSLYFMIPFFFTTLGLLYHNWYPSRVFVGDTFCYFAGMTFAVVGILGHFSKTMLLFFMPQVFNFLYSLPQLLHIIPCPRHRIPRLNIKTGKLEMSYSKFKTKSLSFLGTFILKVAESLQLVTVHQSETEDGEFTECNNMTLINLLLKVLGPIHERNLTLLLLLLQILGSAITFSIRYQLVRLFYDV
Method: (§1) Samples with a volume of 40 μl were prepared containing 0.5 mg/ml protein and 50 μM compound or 5% DMSO in GFB. A glass capillary was dipped into each sample, with the capillary held horizontally to ensure that the capillary was full of the sample. The capillaries were placed on the capillary holder on the Nanotemper Prometheus. Technical triplicates of each sample were prepared, and each experiment was conducted with biological triplicates of each protein. PR.ThermControl software was used to run the experiment and analyse the data. A melting curve from 20 °C – 95 °C at 5 °C/min was performed. The minimum of the first derivative of the 330/350nm ratio was used to determine the Tm1/2.

[2] = target: T2, DPAGT1 Arg301Cys (Homo sapiens, UniProt Q9H3H5, R301C); experiment: as above; assay type: binding, H. sapiens; conditions: 50 μM compound
T2 construct: combined with the LIC-adapted primers to amplify the complete DPAGT1 gene, including the desired mutations; 6xHis purification tag with TEV site (N, cleaved yes); made in house; host or cells: Spodoptera frugiperda Sf9 insect cells (baculovirus)
T2 sequence (Q9H3H5 1-408 R301C): T1 sequence (Q9H3H5 1-408) with R301C
Method: as §1

[3] = target: T3, DPAGT1 Val264Gly (Homo sapiens, UniProt Q9H3H5, V264G); experiment: as above; assay type: binding, H. sapiens; conditions: 50 μM compound
T3 construct: H. sapiens DPAGT1 (1-408, Val264Gly, N-terminal 6 x HIS tag, TEV cleavage site); 6xHis purification tag with TEV site (N, cleaved yes); made in house; host or cells: Spodoptera frugiperda Sf9 insect cells (baculovirus)
T3 sequence (Q9H3H5 1-408 V264G): T1 sequence (Q9H3H5 1-408) with V264G
Method: as §1

[4] = target: T4, DPAGT1 Leu168Pro (Homo sapiens, UniProt Q9H3H5, L168P); experiment: as above; assay type: binding, H. sapiens; conditions: 50 μM compound
T4 construct: combined with the LIC-adapted primers to amplify the complete DPAGT1 gene, including the desired mutations; 6xHis purification tag with TEV site (N, cleaved yes); made in house; host or cells: Spodoptera frugiperda Sf9 insect cells (baculovirus)
T4 sequence (Q9H3H5 1-408 L168P): T1 sequence (Q9H3H5 1-408) with L168P
Method: as §1

[5] = system: Mtb-infected mice; experiment: Mouse infection, antitubercular activity
[6] = Tolerance testing in uninfected mice; assay type: in vivo; conditions: uninfected mice (n=5), 10 days, daily 30 mg.kg^-1 ip
[7] = two weeks, 10 mg.kg^-1 ip, vs vehicle control

SMILES	Thermostability (Tm1/2) with added compound [1]	Thermostability (Tm1/2) with added compound [2]	Thermostability (Tm1/2) with added compound [3]	Thermostability (Tm1/2) with added compound [4]	toxicity in infected mice ([5]; precluded testing beyond 2 weeks)	reduction in bacterial burdens in lungs [5, 7]	reduction in bacterial burdens in spleens [5, 7]	tolerance, signs of toxicity [6]
N[C@H]1[C@H](O[C@H]2O[C@H](CO)[C@@H](O)[C@H](O)[C@H]2N)O[C@H](C[C@@H](O)[C@H]2O[C@@H](n3ccc(=O)[nH]c3=O)[C@H](O)[C@@H]2O)[C@H](O)[C@@H]1O [TUN, α-D-glucosamine-(1”-11')-tunicamyl uracil dihydrochloride]	83.0±0.4 °C	80.9±0.5 °C	82.6±0.1 °C	84.0±0.2 °C				
CCCCCCCC(=O)N[C@H]1[C@H](O[C@H]2O[C@H](CO)[C@@H](O)[C@H](O)[C@H]2NC(=O)CCCCCCC)O[C@H](C[C@@H](O)[C@H]2O[C@@H](n3ccc(=O)[nH]c3=O)[C@H](O)[C@@H]2O)[C@H](O)[C@@H]1O [TUN-8,8, Di-N-octanoyl-tunicamycin]					clinical signs of toxicity	~10 fold	~5 fold	no signs of toxicity
